“And” between values parts separate entries of the source, which are not always exact repeats. Equal values may be shown once.

Consider six molecules from article PMC7335108, “Butyrate producing colonic Clostridiales metabolise human milk oligosaccharides and cross feed on mucin via conserved pathways” (Nature Communications, 2020).

One test has as its target T1, RiFuc29 (Roseburia inulinivorans, UniProt A0ACG1Y7F2).
T1 construct: gene LK408_15425; cleavable His6 tag, pETM11, E. coli; no signal peptide; the GH29 of the GH112/GH136 locus, not that of the GH98 locus
Put plainly: product profile (TLC and/or MALDI-TOF MS). In kind it is biochemical. To be noted: 50 mM MES, 150 mM NaCl, 0.005% Triton X-100, pH 6.5, 37 °C, 16 h; alpha-(1->4)-L-fucosyl removed.

Test [1] concerns the target T2, RiLe^a/bBP (Roseburia inulinivorans, UniProt A0ACG1Y794).
T2 construct: gene LK408_15410; signal peptide removed, cleavable His6 tag, pETM11, expressed in E. coli; amine-coupled to CM5 chip
Kind of test: surface plasmon resonance, steady state, one-site fit. In kind it is binding. The following applies: 20 mM sodium phosphate, 150 mM NaCl, 0.005% P20, pH 6.5, 25 °C; protein immobilised on CM5 chip.

The next test concerns the target T3, RiGLnbp112 (Roseburia inulinivorans, UniProt A0ACG1Y7L8).
T3 construct: gene gnpA; cleavable His6 tag, pETM11, E. coli
Put plainly: phosphorolysis, HPAEC-PAD of Gal1P; specific activity only. In kind it is biochemical. To be noted: 50 mM sodium phosphate, 150 mM NaCl, 0.005% Triton X-100, pH 6.5, 37 °C, 2 mM substrate.

The target in test [2] is T4, RhLNBBP (Roseburia hominis, UniProt G2T0U7).
T4 construct: gene RHOM_04095; signal peptide removed, cleavable His6 tag, pETM11, expressed in E. coli
Put plainly: isothermal titration calorimetry. In kind it is binding. To be noted: 10 mM sodium phosphate, pH 6.5, 25 °C.

A further test has as its target T5, RhGLnbp112 (Roseburia hominis, UniProt G2T0V2).
T5 construct: gene RHOM_04120; cleavable His6 tag, pETM11, E. coli
Kind of test: phosphorolysis, HPAEC-PAD of Gal1P; specific activity only. The following applies: 50 mM sodium phosphate, 150 mM NaCl, 0.005% Triton X-100, pH 6.5, 37 °C, 2 mM substrate. In kind it is biochemical.

Another test deals with T6, ErLnb136 (Eubacterium ramulus, UniProt U2PDT9).
T6 construct: gene HMPREF0373_02965; single chain, domain I AA 7-224 and catalytic domain II AA 242-663; His6 tag, pETM11, E. coli; crystal SeMet-labelled
T6 sequence (U2PDT9 entry or part of it): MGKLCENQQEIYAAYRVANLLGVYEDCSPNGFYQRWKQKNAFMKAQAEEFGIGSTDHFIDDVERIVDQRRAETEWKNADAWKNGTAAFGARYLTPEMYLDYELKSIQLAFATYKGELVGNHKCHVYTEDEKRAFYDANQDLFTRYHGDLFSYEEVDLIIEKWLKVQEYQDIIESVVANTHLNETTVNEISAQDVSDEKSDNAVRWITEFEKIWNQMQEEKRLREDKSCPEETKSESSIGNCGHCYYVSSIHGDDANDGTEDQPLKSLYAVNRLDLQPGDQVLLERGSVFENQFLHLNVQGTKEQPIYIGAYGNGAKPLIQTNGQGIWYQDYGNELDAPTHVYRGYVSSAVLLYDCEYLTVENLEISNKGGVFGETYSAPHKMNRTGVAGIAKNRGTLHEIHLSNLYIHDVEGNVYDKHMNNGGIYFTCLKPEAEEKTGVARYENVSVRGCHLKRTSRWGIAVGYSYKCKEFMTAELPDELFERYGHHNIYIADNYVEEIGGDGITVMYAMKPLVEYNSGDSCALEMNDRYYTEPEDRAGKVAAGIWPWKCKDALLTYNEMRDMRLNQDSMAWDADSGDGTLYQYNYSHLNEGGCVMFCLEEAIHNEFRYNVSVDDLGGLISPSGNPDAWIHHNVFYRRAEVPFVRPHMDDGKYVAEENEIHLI
Kind of test: X-ray crystal structure. In kind it is binding. The following applies: SeMet-labelled protein, 1.4 Å; 25 mM LNB in cryoprotectant; active site.

Test [3] has as its target T7, RhLNBBP (Roseburia hominis, UniProt G2T0U7).
T7 construct: gene RHOM_04095; signal peptide removed, cleavable His6 tag, pETM11, expressed in E. coli
T7 sequence (G2T0U7 21-454): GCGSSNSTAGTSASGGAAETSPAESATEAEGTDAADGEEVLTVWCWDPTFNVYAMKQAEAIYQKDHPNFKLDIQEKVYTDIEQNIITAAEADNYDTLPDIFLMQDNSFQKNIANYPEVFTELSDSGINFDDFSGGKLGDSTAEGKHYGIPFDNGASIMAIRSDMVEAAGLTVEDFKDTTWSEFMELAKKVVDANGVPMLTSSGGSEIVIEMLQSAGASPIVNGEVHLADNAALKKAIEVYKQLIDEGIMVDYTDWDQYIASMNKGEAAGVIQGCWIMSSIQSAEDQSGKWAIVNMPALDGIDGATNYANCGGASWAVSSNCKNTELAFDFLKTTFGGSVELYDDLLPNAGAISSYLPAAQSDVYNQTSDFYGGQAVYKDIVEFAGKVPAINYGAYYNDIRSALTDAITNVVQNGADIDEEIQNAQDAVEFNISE
The arrangement: isothermal titration calorimetry, single-site binding model. To be noted: binder; read-out: KD (μM) ITC. How it is done: Binding of LNT, LNB, GNB, LNnT, lactose and 2′FL to RhLNBBP was measured using a Microcal ITC200 calorimeter (GE Healthcare). Titrations were performed in duplicates at 25 °C with RhLNBBP (0.1 mM) in the sample cell and 1.5 mM ligand in 10 mM sodium phosphate buffer, pH 6.5 in the syringe. A first injection of 0.4 µL was followed by 19 injections of 2 µL ligand each, separated by 180 s. Heat of dilution was determined from buffer titrations and corrected data were analysed using MicroCal Origin software v7.0. To determine binding thermodynamics a non-linear single binding model was fitted to the normalized integrated binding isotherms.

In test [4] the target is T8, RiLe^a/bBP (Roseburia inulinivorans, UniProt A0ACG1Y794).
T8 construct: gene LK408_15410; signal peptide removed, cleavable His6 tag, pETM11, expressed in E. coli; amine-coupled to CM5 chip
T8 sequence (A0ACG1Y794 20-470): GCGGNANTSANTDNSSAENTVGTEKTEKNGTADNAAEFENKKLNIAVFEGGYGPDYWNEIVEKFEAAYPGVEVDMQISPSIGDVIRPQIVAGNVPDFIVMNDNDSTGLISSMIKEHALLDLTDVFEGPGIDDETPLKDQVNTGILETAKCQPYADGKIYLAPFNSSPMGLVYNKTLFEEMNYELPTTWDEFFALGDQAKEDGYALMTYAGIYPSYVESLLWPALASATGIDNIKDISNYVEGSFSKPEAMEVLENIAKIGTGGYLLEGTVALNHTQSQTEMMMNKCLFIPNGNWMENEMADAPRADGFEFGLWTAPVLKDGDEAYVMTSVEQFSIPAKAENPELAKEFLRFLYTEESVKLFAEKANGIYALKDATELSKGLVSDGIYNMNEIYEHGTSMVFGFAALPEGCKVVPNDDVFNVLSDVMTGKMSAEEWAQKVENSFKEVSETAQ
The arrangement: surface plasmon resonance, steady state, one-site fit. The following applies: binder; read-out: KD (µM) SPR. The source says: Both SBPs recognized distinct HMOs and ligands from host-glycans (Fig. 4, Supplementary Tables 2 and 3, Supplementary Fig. 7). […] The loss of the fucosyl unit at the terminal reducing GlcNAc reduced the affinity of RiLe^a/bBP about 5-fold for blood group H antigen triose type I (H triose type I) relative to Le^b tetraose. The specificity of RiLe^a/bBP is highlighted by the lack of affinity for lacto-N-neotetroase (LNnT), blood group A antigen triose (A triose), lactose and 2′-fucosyllactose (2′-FL). […] An equimolar mixture of Le^b, Le^a and H-triose type I oligomers promoted the growth of R. inulinivorans to a similar final OD600 as glucose (Fig. 1b, c and Fig. 4a). The uptake profiles of these ligands reflected the preference of RiLe^a/bBP, consistent with uptake by the associated transporter (Fig. 4). This was also in accord with the utilization of larger fucosylated HMO structures observed during growth on purified HMOs from mother’s milk (Supplementary Fig. 2a–c).

The target of test [5] is T9, ErLnb136II, C-terminal catalytic beta-helix domain of the GH136 lacto-N-biosidase ErLnb136 from Eubacterium … (Eubacterium ramulus DSM 15684, UniProt U2PDT9 242-663, selenomethionine in the SeMet-labelled crystal (PDB 6KQS)).
T9 construct: C-terminal catalytic domain (AA 242-663, beta-helix fold) of ErLnb136, product of HMPREF0373_02965 of Eubacterium ramulus DSM 15684; In the crystal this domain is on ONE natural polypeptide with m3 (whole ErLnb136, cloned in pETM11 with a cleavable N- or C-terminal His6 tag); also called GH136II domain; source: E. coli B834 (DE3), SeMet-labelled, and E. coli BL21 ΔlacZ (DE3)/pRARE2, native
T9 sequence (looked up): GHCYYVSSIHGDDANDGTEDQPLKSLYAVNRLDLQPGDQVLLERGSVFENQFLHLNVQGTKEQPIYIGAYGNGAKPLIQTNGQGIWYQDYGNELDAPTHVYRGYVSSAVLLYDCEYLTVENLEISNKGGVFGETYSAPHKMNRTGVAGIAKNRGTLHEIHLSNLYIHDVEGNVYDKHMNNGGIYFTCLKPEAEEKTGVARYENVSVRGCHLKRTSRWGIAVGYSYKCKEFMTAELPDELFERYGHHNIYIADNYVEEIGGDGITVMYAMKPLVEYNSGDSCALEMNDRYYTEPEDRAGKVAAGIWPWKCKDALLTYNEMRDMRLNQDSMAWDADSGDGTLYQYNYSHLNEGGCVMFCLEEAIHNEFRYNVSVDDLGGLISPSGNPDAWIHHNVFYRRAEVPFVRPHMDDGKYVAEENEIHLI
Kind of test: crystal structure; ErLnb136 (both domains on one chain) with LNB; SeMet-labelled 1.4 Å and native 2.0 Å; sitting-drop vapor diffusion at 20 °C. The following applies: both partners purified.

T5 sequence (G2T0V2 entry or part of it): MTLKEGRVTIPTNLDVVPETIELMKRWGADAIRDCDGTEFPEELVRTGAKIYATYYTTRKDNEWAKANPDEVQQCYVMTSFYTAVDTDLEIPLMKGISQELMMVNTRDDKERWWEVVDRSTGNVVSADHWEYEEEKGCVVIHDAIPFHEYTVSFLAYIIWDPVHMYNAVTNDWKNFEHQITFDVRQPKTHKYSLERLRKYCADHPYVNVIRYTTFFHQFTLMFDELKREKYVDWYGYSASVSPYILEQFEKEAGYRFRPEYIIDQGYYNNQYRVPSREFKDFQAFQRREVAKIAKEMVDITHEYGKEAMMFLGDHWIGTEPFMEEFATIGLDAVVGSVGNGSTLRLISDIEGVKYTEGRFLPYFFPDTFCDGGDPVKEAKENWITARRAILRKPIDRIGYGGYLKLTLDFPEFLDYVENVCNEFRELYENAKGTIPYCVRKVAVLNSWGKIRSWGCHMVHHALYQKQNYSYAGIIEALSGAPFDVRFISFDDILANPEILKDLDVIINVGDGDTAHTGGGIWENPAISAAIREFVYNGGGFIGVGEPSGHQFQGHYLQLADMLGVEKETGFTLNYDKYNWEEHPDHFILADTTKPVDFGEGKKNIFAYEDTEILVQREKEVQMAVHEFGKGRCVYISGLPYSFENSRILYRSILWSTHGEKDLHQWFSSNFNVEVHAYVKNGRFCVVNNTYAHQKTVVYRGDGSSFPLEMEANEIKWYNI
T3 sequence (A0ACG1Y7L8 entry or part of it): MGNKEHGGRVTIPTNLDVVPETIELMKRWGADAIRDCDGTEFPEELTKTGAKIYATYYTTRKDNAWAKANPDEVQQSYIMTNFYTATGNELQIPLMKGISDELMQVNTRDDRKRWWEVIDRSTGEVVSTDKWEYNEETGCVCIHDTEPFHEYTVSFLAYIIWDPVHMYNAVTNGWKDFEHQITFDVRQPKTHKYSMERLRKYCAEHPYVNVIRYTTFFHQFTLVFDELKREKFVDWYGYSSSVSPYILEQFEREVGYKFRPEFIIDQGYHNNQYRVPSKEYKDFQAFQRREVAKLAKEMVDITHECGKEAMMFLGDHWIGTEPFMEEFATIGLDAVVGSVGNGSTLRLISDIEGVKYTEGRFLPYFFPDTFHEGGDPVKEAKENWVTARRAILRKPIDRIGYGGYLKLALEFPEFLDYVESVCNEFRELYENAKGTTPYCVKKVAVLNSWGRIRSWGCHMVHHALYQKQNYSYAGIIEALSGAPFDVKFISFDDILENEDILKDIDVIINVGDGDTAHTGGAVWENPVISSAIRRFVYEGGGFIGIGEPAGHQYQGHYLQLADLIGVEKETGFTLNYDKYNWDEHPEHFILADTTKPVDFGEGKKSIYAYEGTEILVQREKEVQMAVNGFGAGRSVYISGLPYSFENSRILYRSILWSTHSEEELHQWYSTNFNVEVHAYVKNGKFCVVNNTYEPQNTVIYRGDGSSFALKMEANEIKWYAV
T1 sequence (A0ACG1Y7F2 entry or part of it): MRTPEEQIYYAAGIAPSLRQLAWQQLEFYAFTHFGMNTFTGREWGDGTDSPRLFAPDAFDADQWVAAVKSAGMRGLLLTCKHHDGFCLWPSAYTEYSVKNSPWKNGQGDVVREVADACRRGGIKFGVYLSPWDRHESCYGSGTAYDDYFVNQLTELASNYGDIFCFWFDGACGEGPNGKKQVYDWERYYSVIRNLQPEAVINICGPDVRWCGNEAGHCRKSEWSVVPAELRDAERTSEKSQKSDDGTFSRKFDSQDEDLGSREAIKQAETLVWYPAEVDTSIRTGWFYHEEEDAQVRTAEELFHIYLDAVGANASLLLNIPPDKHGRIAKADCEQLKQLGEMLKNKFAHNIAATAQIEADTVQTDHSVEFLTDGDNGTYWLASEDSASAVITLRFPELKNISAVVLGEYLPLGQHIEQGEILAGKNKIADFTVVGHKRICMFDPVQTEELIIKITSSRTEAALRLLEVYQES

For `CC(=O)N[C@H]1C(O)O[C@H](CO)[C@@H](O[C@@H]2O[C@@H](C)C(O)C(O)[C@@H]2O)[C@@H]1O[C@@H]1O[C@H](CO)[C@H](O)[C@H](O)[C@H]1O` (stereo partly drawn) [Le^a triose], the “product profile (TLC and/or MALDI-TOF MS)” value at RiFuc29 is “complete defucosylation of putative products of RiGH136, Le^b tetraose, Le^a triose and H triose”. Also, the KD result on RiLe^a/bBP [1] is “Lewis b (Le^b) tetraose and Lewis a (Le^a) triose were the preferred ligand”.
Regarding `CC(=O)N[C@H]1C(O)O[C@H](CO)[C@@H](O)[C@@H]1O[C@@H]1O[C@H](CO)[C@H](O)[C@H](O)[C@H]1O` (stereo partly drawn) [LNB], the “phosphorolysis, HPAEC-PAD of Gal1P; specific activity only” value on RiGLnbp112 was “(RiGLnbp112) phosphorolyzes LNB and GNB equally efficiently”; at RhGLnbp112, “This enzyme has comparable specific activities for LNB and GNB”. The KD result on RhLNBBP [2] was “shows preference to LNB followed by GNB and LNT”. Also, the X-ray crystal structure entry at ErLnb136 is listed as “The LNB molecule bound in the active site is recognized by ten potential hydrogen bonds”. The Kd on RhLNBBP [3] was 2.64 µM and 3.12 µM; at RiLe^a/bBP [4] it was 6.63 µM and 6.91 µM.
`CC(=O)N[C@H]1C(O)O[C@H](CO)[C@H](O)[C@@H]1O[C@@H]1O[C@H](CO)[C@H](O)[C@H](O)[C@H]1O` (stereo partly drawn) [GNB]: the “phosphorolysis, HPAEC-PAD of Gal1P; specific activity only” value on RiGLnbp112 is “(RiGLnbp112) phosphorolyzes LNB and GNB equally efficiently”; at RhGLnbp112, “This enzyme has comparable specific activities for LNB and GNB”. Also, at RhLNBBP [2], the KD result was “shows preference to LNB followed by GNB and LNT”. Also, the Kd is 10.9 µM and 11.1 µM at RhLNBBP [3]; 10.8 µM and 10.2 µM at RiLe^a/bBP [4].
On to `CC(=O)N[C@H]1C(O)O[C@H](CO)[C@@H](O[C@@H]2O[C@@H](C)[C@@H](O)[C@@H](O)[C@@H]2O)[C@@H]1O[C@@H]1O[C@H](CO)[C@H](O)[C@H](O)[C@H]1O[C@@H]1O[C@@H](C)[C@@H](O)[C@@H](O)[C@@H]1O` (stereo partly drawn) [Le^b tetraose], for which, at RiLe^a/bBP [1], the KD entry is “Lewis b (Le^b) tetraose and Lewis a (Le^a) triose were the preferred ligand”. Also, the dissociation constant (Kd) at RiLe^a/bBP [4] is 1.77 µM and 1.75 µM.
Consider `CC(=O)N[C@H]1[C@H](O[C@H]2[C@@H](O)[C@@H](CO)O[C@@H](O[C@H]3[C@H](O)[C@@H](O)C(O)O[C@@H]3CO)[C@@H]2O)O[C@H](CO)[C@@H](O)[C@@H]1O[C@@H]1O[C@H](CO)[C@H](O)[C@H](O)[C@H]1O` (stereo partly drawn) [LNT], for which the KD result on RhLNBBP [2] was “shows preference to LNB followed by GNB and LNT”. Besides, the Kd on RhLNBBP [3] is 11 µM and 9.71 µM.

B1: ErLnb136I, N-terminal domain of the GH136 lacto-N-biosidase ErLnb136 from Eubacterium ramulus (domain or fragment, Eubacterium ramulus DSM 15684, UniProt U2PDT9 7-224, looked up)
chain: NQQEIYAAYRVANLLGVYEDCSPNGFYQRWKQKNAFMKAQAEEFGIGSTDHFIDDVERIVDQRRAETEWKNADAWKNGTAAFGARYLTPEMYLDYELKSIQLAFATYKGELVGNHKCHVYTEDEKRAFYDANQDLFTRYHGDLFSYEEVDLIIEKWLKVQEYQDIIESVVANTHLNETTVNEISAQDVSDEKSDNAVRWITEFEKIWNQMQEEKRLRE
modifications: selenomethionine in the SeMet-labelled crystal (PDB 6KQS)
notes: N-terminal domain (AA 7-224, eight alpha-helices, new fold) of ErLnb136, product of HMPREF0373_02965 of Eubacterium ramulus DSM 15684; residues 180-199 are disordered in the structure; In the crystal this domain is on ONE natural polypeptide with m4 (whole ErLnb136, cloned in pETM11 with a cleavable N- or C-terminal His6 tag); The linker 225-241 is disordered; also called GH136I domain; source: …
For B1, in [5], the binding result was “binds”.
